Measurements from ChEMBL document CHEMBL1201862, “PubChem BioAssay data set” (2004).
The source made the active and inactive calls. How the calls were made is not given here.

Key:
[1] = target: T1, High affinity choline transporter 1 (Homo sapiens, UniProt Q9GZV3); assay: CHT inhibitors, dose response, cell-based, 5-point CRC, membrane potential dye (AID 504840); type: functional
T1 sequence (Q9GZV3 whole entry): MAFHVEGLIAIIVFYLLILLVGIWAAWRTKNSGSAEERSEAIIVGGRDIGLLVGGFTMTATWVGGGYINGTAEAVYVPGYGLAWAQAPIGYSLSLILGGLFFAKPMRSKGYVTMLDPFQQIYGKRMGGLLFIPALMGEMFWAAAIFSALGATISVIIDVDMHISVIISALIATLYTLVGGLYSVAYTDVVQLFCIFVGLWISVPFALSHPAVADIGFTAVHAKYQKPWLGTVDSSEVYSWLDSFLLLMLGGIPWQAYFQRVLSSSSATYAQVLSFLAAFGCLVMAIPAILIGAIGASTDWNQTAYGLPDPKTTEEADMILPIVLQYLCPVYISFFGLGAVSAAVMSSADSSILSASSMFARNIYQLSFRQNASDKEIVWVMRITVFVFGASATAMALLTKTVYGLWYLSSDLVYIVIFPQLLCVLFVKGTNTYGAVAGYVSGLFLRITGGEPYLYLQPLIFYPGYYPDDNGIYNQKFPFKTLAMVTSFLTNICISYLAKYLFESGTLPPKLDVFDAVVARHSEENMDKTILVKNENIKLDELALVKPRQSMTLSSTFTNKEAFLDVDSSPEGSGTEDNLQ

[2] = target: T1, High affinity choline transporter 1; assay: CHT inhibitors, dose response, cell-based, 10-point CRC, membrane potential dye (AID 588401); type: functional;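 further: membrane potential dye fluorescence of choline-evoked depolarization via CHT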

IC50 [1]: 4.07 µM (active) | IC50 [2]: 2.7 µM (active)
SMILES: Cc1cc(C)c(C(=O)Nc2ccc(S(=O)(=O)Nc3ccccn3)cc2)c(C)c1
